Test results reported in BindingDB's records for doi:10.1007/bfb0000613 (German Institute of Human Nutrition, 1998).
Several values for one entry are separate records, joined by “and”; a condition that tells them apart may be missing. Identical values can stand only once. *1 amine or outer side, *2 acyl side, *3 side chain or, on linkers, in order; H or OH if unused. Where a SMILES comes first, the peptide text is derived from it. Bridges are numbered along the chain shown (N, C = ends). [ ]: non-standard residue; d: D form. ξ: configuration not given here. Phe(4-CH2NHiPr) = CC(C)NCc1ccc(C[C@H](N)C(=O)O)cc1; X2 = CC(C)NCc1ccc(C[C@@H](N[*:1])C(=O)[*:2])cc1; d1Nal = N[C@H](Cc1cccc2ccccc12)C(=O)O; Thr(3ξ) = CC(O)[C@H](N)C(=O)O; ξF = NC(Cc1ccccc1)C(=O)O; ξK = NCCCCC(N)C(=O)O; ξT = CC(O)C(N)C(=O)O; Ahp = NCCCCCCC(=O)O

Assays:
[1] = biological target: Somatostatin receptor type 3 (Rattus norvegicus, UniProt P30936)
[2] = biological target: T1, Somatostatin receptor type 5 (Rattus norvegicus, UniProt P30938)
T1 sequence (P30938 whole entry): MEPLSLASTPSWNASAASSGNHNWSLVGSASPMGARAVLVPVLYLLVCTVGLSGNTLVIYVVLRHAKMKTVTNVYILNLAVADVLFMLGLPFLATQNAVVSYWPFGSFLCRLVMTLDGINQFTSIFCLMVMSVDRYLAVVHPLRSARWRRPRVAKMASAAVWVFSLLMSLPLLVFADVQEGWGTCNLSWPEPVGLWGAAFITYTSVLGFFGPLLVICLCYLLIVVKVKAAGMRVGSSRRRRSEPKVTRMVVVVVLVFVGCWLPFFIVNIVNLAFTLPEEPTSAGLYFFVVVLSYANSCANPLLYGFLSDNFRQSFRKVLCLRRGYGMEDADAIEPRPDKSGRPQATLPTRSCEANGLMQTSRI

[3] = biological target: Somatostatin receptor type 2 (Mus musculus, UniProt P30875)
[4] = biological target: Somatostatin receptor type 1 (Homo sapiens, UniProt P30872)
[5] = biological target: Somatostatin receptor type 5 (Homo sapiens, UniProt P35346)
[6] = biological target: Somatostatin receptor type 2 (Rattus norvegicus, UniProt P30680)
[7] = biological target: Somatostatin receptor type 4 (Homo sapiens, UniProt P31391)
[8] = biological target: Somatostatin receptor type 2 (Homo sapiens, UniProt P30874)
Sequence of Somatostatin receptor type 2 (Homo sapiens, UniProt P30874) (P30874 whole entry): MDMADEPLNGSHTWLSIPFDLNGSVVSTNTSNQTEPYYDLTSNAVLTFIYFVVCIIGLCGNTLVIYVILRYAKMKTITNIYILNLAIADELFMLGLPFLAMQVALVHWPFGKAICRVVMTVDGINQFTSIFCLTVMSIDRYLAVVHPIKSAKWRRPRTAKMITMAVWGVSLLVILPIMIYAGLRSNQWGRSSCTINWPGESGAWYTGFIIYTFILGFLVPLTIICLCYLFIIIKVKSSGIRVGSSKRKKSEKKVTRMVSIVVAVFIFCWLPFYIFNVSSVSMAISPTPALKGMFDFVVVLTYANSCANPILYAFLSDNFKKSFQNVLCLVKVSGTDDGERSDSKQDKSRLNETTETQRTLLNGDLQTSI

Sequence of Somatostatin receptor type 5 (Homo sapiens, UniProt P35346) (P35346 whole entry): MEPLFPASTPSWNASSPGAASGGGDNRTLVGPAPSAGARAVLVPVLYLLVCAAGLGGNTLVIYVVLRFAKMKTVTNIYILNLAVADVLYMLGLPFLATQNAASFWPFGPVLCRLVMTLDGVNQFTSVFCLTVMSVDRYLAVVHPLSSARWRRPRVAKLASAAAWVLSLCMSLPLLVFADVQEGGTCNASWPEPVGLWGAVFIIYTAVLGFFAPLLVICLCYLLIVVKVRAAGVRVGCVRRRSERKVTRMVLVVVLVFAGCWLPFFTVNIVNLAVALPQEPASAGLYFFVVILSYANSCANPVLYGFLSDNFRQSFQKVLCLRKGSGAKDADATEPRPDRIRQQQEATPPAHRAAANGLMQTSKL
Sequence of Somatostatin receptor type 2 (Mus musculus, UniProt P30875) (P30875 whole entry): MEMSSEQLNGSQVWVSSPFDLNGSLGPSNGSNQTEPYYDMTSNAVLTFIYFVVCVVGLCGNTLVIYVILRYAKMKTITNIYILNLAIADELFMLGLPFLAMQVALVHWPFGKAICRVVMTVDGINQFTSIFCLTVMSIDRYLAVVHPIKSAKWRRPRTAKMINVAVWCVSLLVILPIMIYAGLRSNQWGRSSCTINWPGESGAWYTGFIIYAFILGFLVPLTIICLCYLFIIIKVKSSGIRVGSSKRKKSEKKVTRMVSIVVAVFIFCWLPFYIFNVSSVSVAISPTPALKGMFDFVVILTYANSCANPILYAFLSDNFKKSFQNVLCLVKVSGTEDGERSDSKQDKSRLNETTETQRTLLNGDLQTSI
Sequence of Somatostatin receptor type 1 (P30872 whole entry): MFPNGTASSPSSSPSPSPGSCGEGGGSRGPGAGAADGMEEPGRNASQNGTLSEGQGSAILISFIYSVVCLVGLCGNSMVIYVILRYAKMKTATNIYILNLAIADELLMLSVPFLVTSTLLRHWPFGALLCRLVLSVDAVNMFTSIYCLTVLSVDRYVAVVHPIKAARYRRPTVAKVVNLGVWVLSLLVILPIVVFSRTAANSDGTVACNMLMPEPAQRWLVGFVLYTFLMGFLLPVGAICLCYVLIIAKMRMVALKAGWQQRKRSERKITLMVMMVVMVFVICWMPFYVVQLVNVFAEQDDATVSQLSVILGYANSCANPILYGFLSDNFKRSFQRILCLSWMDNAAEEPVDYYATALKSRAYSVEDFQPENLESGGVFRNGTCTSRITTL
Sequence of Somatostatin receptor type 2 (Rattus norvegicus, UniProt P30680) (P30680 whole entry): as the sequence (P30875 whole entry) above, with M3L, S4T, L8F, V15I, S16P, C168G, T335A counted along it
Sequence of Somatostatin receptor type 4 (P31391 whole entry): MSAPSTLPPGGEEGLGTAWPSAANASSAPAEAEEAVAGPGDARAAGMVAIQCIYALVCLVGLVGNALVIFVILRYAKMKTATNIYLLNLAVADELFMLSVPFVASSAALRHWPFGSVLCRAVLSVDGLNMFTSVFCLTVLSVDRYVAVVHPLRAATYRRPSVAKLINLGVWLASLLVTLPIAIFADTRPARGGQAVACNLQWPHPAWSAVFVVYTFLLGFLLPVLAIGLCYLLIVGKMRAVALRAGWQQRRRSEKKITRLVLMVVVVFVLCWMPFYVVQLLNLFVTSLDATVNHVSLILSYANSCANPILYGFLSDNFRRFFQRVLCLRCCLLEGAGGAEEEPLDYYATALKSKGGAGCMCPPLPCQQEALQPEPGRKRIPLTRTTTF
Sequence of Somatostatin receptor type 3 (P30936 whole entry): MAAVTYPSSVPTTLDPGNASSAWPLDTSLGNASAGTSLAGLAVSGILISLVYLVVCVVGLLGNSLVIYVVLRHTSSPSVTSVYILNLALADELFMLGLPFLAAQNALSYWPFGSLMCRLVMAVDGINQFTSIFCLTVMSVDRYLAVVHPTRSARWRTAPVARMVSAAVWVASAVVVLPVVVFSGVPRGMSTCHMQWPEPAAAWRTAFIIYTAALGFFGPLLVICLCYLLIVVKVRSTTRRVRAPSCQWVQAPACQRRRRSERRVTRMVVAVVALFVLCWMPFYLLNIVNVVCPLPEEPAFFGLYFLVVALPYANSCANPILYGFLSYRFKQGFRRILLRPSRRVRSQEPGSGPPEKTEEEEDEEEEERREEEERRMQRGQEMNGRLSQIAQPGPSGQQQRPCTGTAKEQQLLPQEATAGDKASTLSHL

Row | Compound | Ki [1] [µM] | Ki [2] [µM] | Ki [3] | Ki [4] | Ki [5] [µM] | Ki [6] [µM] | Ki [7] [µM] | Ki [8] [µM]
1 | C[C@@H](O)[C@@H]1NC(=O)[C@H](CCCCN)NC(=O)[C@@H](Cc2c[nH]c3ccccc23)NC(=O)[C@H](Cc2ccccc2)NC(=O)[C@@H](NC(=O)[C@H](N)Cc2ccccc2)CSSC[C@@H](C(=O)N[C@H](CO)[C@@H](C)O)NC1=O | 0.014 | – | – | – | – | – | – | –
2 | CC(O)[C@H](CO)NC(=O)[C@@H]1CSSCC(NC(=O)C(N)Cc2ccccc2)C(=O)N[C@H](Cc2ccccc2)C(=O)N[C@H](Cc2c[nH]c3ccccc23)C(=O)N[C@H](CCCCN)C(=O)N[C@H](C(C)O)C(=O)N1 (some centres not stated) | – | 0.017 | – | – | – | – | – | –
3 | C[C@@H](O)[C@@H]1NC(=O)[C@H](CCCCN)NC(=O)[C@@H](Cc2c[nH]c3ccccc23)NC(=O)[C@H](Cc2ccccc2)NC(=O)[C@H](Cc2ccccc2)NC(=O)[C@H](N)CSSC[C@H](C(N)=O)NC(=O)[C@H](Cc2ccccc2)NC1=O | 0.0041 | – | 0.00149 µM and 0.011 µM | 0.582 µM | 0.00218 | 0.101 | – | –
4 | CC(O)[C@H]1NC(=O)[C@H](CCCCN)NC(=O)[C@H](Cc2c[nH]c3ccccc23)NC(=O)[C@H](Cc2ccccc2)NC(=O)[C@@H](Cc2ccccc2)NC(=O)[C@H](N)CSSC[C@H](C(N)=O)NC(=O)[C@H](Cc2ccccc2)NC1=O (some centres not stated) | – | 0.0034 | – | – | – | – | – | –
5 | CC(C)[C@@H]1NC(=O)[C@H](CCCCN)NC(=O)[C@@H](Cc2c[nH]c3ccccc23)NC(=O)[C@H](Cc2ccc(O)cc2)NC(=O)[C@@H](NC(=O)[C@H](N)Cc2ccc3ccccc3c2)CSSC[C@@H](C(=O)N[C@H](C(N)=O)[C@@H](C)O)NC1=O [3-(2-Naphtyl)-D-Ala-L-Cys(1)-L-Tyr-D-Trp-L-Lys-L-Val-L-Cys(1)-L-Thr-NH2] | 0.115 | 0.023 | – | – | – | 0.00147 | – | –
6 | CC(C)[C@H](NC(=O)[C@H](CCCCN)NC(=O)[C@@H](Cc1c[nH]c2ccccc12)NC(=O)[C@H](Cc1ccc(O)cc1)NC(=O)[C@H](Cc1ccccc1)NC(=O)[C@@H](N)Cc1ccccc1)C(=O)N[C@@H](Cc1ccccc1)C(=O)N[C@H](Cc1cccc2ccccc12)C(N)=O [BIM 23056] (H-FFY[dW]KVF[d1Nal]-NH2) | – | 0.536 | – | – | – | – | – | –
7 | CC(C)[C@H](NC(=O)[C@H](CCCCN)NC(=O)[C@@H](Cc1c[nH]c2ccccc12)NC(=O)[C@H](Cc1ccc(O)cc1)NC(=O)[C@H](Cc1ccccc1)NC(=O)[C@H](N)Cc1ccccc1)C(=O)N[C@@H](Cc1ccccc1)C(=O)N[C@H](Cc1cccc2ccccc12)C(N)=O [BIM 23056] (H-[dF]FY[dW]KVF[d1Nal]-NH2) | 0.272 | – | 0.132 µM | 0.692 µM | 0.012 | 3.4 | 0.174 | –
8 | CC(O)[C@@H](NC(=O)[C@H](CCCCN)NC(=O)[C@@H](Cc1c[nH]c2ccccc12)NC(=O)[C@H](Cc1ccc(O)cc1)NC(=O)C(Cc1ccccc1)NC(=O)C(N)CS)C(=O)NC(Cc1ccccc1)C(=O)NC(CS)C(N)=O (some centres not stated) [BIM 23295] | 0.0057 | 0.00065 | – | 0.0868 µM | 0.00034 | 0.057 | 0.00336 | –
9 | CC(O)[C@@H](NC(=O)[C@H](CCCCN)NC(=O)[C@@H](Cc1c[nH]c2ccccc12)NC(=O)[C@H](Cc1ccccc1)NC(=O)C(Cc1ccccc1)NC(=O)C(N)CS)C(=O)NC(Cc1ccccc1)C(=O)NC(CS)C(N)=O (some centres not stated) [BIM 23313] | 0.0112 | 0.00988 | – | 0.151 µM | 0.00027 | 0.045 | 0.0553 | –
10 | CC(C)C1NC(=O)C(CCCCN)NC(=O)C(Cc2c[nH]c3ccccc23)NC(=O)C(Cc2ccc(O)cc2)NC(=O)C(NC(=O)C(N)Cc2ccccc2)CSSCC(C(=O)NC(Cc2c[nH]c3ccccc23)C(N)=O)NC1=O (configuration not stated) [CAS_71306] (H-FCYWKVCW-NH2; disulfide 2-7; configuration not given here) | – | 0.0068 | – | – | – | – | – | –
11 | CC(C)[C@@H]1NC(=O)[C@H](CCCCN)NC(=O)[C@@H](Cc2c[nH]c3ccccc23)NC(=O)[C@H](Cc2ccc(O)cc2)NC(=O)[C@@H](NC(=O)[C@H](N)Cc2ccccc2)CSSC[C@@H](C(=O)N[C@@H](Cc2c[nH]c3ccccc23)C(N)=O)NC1=O [CAS_71306] (H-[dF]CY[dW]KVCW-NH2; disulfide 2-7) | 0.087 | – | – | 0.481 µM | – | 0.00085 | 0.351 | –
12 | C[C@@H](O)[C@H](NC(=O)[C@H](Cc1ccccc1)NC(=O)[C@@H](NC(=O)[C@H](CCCCN)NC(=O)[C@@H](Cc1c[nH]c2ccccc12)NC(=O)[C@H](Cc1ccccc1)NC(=O)[C@H](Cc1ccccc1)NC(=O)[C@H](N)Cc1ccccc1)[C@@H](C)O)C(N)=O [CAS_133073-82-2] (H-[dF]FF[dW]KTFT-NH2) | 0.0035 | 0.0024 | 0.0119 µM and 0.00558 µM | – | – | 0.069 | – | –
13 | CC(C)C1NC(=O)C(CCCCN)NC(=O)C(Cc2c[nH]c3ccccc23)NC(=O)C(Cc2ccc(O)cc2)NC(=O)C(C)N(C)C(=O)C(Cc2ccccc2)NC1=O (configuration not stated) [CAS_3086456] | – | 0.072 | – | – | – | – | – | –
14 | CC(C)[C@@H]1NC(=O)[C@H](CCCCN)NC(=O)[C@@H](Cc2c[nH]c3ccccc23)NC(=O)[C@H](Cc2ccc(O)cc2)NC(=O)[C@H](C)N(C)C(=O)[C@H](Cc2ccccc2)NC1=O [CAS_3086456] | 0.045 | – | – | – | 0.0155 | 0.00048 | – | –
15 | CC(C)NCc1ccc(C[C@@H]2NC(=O)[C@@H](Cc3c[nH]c4ccccc34)NC(=O)[C@H](Cc3ccccc3)NC(=O)[C@H](Cc3ccccc3)NC(=O)[C@H](CCCCN)NC(=O)[C@@H](N)CSSC[C@@H](C(=O)O)NC(=O)[C@H](CO)NC(=O)[C@H]([C@@H](C)O)NC(=O)[C@H](Cc3ccccc3)NC(=O)[C@H]([C@@H](C)O)NC2=O)cc1 [CH-275] (H-CKFF[dW][Phe(4-CH2NHiPr)]TFTSC-OH; disulfide 1-11) | – | – | 1 µM | 0.0018 µM and 0.0049 µM | – | – | 0.874 | 1
16 | CC(C)NCc1ccc(C[C@H]2NC(=O)[C@H](Cc3c[nH]c4ccccc34)NC(=O)C(Cc3ccccc3)NC(=O)C(Cc3ccccc3)NC(=O)C(CCCCN)NC(=O)[C@H](N)CSSC[C@H](C(=O)O)NC(=O)[C@@H](CO)NC(=O)[C@H](C(C)O)NC(=O)[C@@H](Cc3ccccc3)NC(=O)C(C(C)O)NC2=O)cc1 (some centres not stated) [CH-275] (H-[dC][ξK][ξF][ξF]W[X2][ξT][dF][Thr(3ξ)][dS][dC]-OH; disulfide 1-11) | – | 0.632 | – | – | – | – | – | –
17 | CC[C@@H]1NC(=O)[C@H](CCCCN)NC(=O)[C@@H](Cc2c[nH]c3ccccc23)NC(=O)[C@H](Cc2ccc(O)cc2)NC(=O)[C@@H](NC(=O)[C@H](N)Cc2ccccc2)CSSC[C@@H](C(=O)N[C@H](C(N)=O)[C@@H](C)O)NC1=O [D-Phe-L-Cys(1)-L-Tyr-D-Trp-L-Lys-L-Abu-L-Cys(1)-L-Thr-NH2] | 0.092 | 0.014 | – | – | – | 0.00057 | – | –
18 | C[C@@H](O)[C@@H]1NC(=O)[C@H](CCCCN)NC(=O)[C@@H](Cc2c[nH]c3ccccc23)NC(=O)[C@H](Cc2c[nH]c3ccccc23)NC(=O)[C@H](Cc2ccccc2)NC(=O)CCCCCCNC(=O)[C@H](Cc2ccccc2)NC1=O [L-362855] (cyclo([Ahp]FW[dW]KTF)) | 0.033 | 0.051 | – | – | 0.00076 | 0.012 | 0.467 | –
19 | CSCC[C@H](NC(=O)[C@H](C)NC(=O)[C@@H]1CCCN1C(=O)[C@H](CC(N)=O)NC(=O)[C@H](CO)NC(=O)[C@H](CC(N)=O)NC(=O)[C@H](C)NC(=O)[C@@H](N)CO)C(=O)N[C@@H](C)C(=O)N1CCC[C@H]1C(=O)N[C@@H](CCCNC(=N)N)C(=O)N[C@@H](CCC(=O)O)C(=O)N[C@@H](CCCNC(=N)N)C(=O)N[C@@H](CCCCN)C(=O)N[C@@H](C)C(=O)NCC(=O)N[C@H]1CSSC[C@@H](C(=O)O)NC(=O)[C@H](CO)NC(=O)[C@H]([C@@H](C)O)NC(=O)[C@H](Cc2ccccc2)NC(=O)[C@H]([C@@H](C)O)NC(=O)[C@H](CCCCN)NC(=O)[C@H](Cc2c[nH]c3ccccc23)NC(=O)[C@H](Cc2ccccc2)NC(=O)[C@H](Cc2ccccc2)NC(=O)[C@H](CC(N)=O)NC(=O)[C@H](CCCCN)NC1=O [L-Ser-L-Ala-L-Asn-L-Ser-L-Asn-L-Pro-L-Ala-L-Met-L-Ala-L-Pro-L-Arg-L-Glu-L-Arg-L-Lys-L-Ala-Gly-L-Cys(1)-L-Lys-L-Asn-L-Phe-L-Phe-L-Trp-L-Lys-L-Thr-L-Phe-L-Thr-L-Ser-L-Cys(1)-OH] | 0.00081 | – | – | – | – | – | – | –
